Results reported in ChEMBL document CHEMBL1201862, “PubChem BioAssay data set” (2004).
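1) Cells in 96-well plates. 2) Compound, 48 h, 5 concentrations. 3) Linear interpolation between surrounding doses. 4) Unreached endpoint = highest concentration. GI50 marks 50% less growth.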 The source made the active and inactive calls. No stated cut-off is given here; in the data, active = GI50 up to about 1.1 µM and inactive = higher.

Assays:
Assay in all cases: inhibition of tumour cell growth, NCI panel, 48 h
EKVX = tested on: EKVX
HOP-62 = tested on: HOP-62
KM12 = tested on: KM12
SW-620 = tested on: SW-620
Hs-578T = tested on: Hs-578T
LOX IMVI = tested on: LOX IMVI
A498 = tested on: A498
TK-10 = tested on: TK-10
SF-268 = tested on: SF-268
786-0 = tested on: 786-0
A549 = tested on: A549
COLO 205 = tested on: COLO 205
OVCAR-4 = tested on: OVCAR-4
UO-31 = tested on: UO-31
MDA-MB-435 = tested on: MDA-MB-435
NCI-H226 = tested on: NCI-H226
CCRF-CEM = tested on: CCRF-CEM
HOP-92 = tested on: HOP-92
SK-MEL-5 = tested on: SK-MEL-5
DU-145 = tested on: DU-145

Compound	GI50 (EKVX)	GI50 (HOP-62)	GI50 (KM12)	GI50 (SW-620)	GI50 (Hs-578T)	GI50 (LOX IMVI)	GI50 (A498)	GI50 (TK-10)	GI50 (SF-268)	GI50 (786-0)	GI50 (A549)	GI50 (COLO 205)	GI50 (OVCAR-4)	GI50 (UO-31)	GI50 (MDA-MB-435)	GI50 (NCI-H226)	GI50 (CCRF-CEM)	GI50 (HOP-92)	GI50 (SK-MEL-5)	GI50 (DU-145)
COc1cc2c(cc1[N+](=O)[O-])C(=O)C(Br)(Br)CCC2	2.12 µM (inactive)	3.38 µM (inactive)	3.78 µM (inactive)	1.88 µM (inactive)	5.75 µM (inactive)	0.4 µM (active)	15.3 µM (inactive)	2.54 µM (inactive)	4.14 µM (inactive)	1.26 µM (inactive)	4.37 µM (inactive)	1.91 µM (inactive)	4.62 µM (inactive)	1.61 µM (inactive)	2.81 µM (inactive)	3.47 µM (inactive)	0.101 µM (active)	4.46 µM (inactive)	1.72 µM (inactive)	7.18 µM (inactive)
Clc1ccc(Cn2cc(/C=N/n3cnnc3)c3ccccc32)cc1	20.6 µM (inactive)	74.3 µM (inactive)	70.3 µM (inactive)	> 100 µM (inactive)	37.1 µM (inactive)	54.6 µM (inactive)	1.49 µM (inactive)	4.81 µM (inactive)	45.9 µM (inactive)	57.9 µM (inactive)	41.8 µM (inactive)	18.5 µM (inactive)	33.5 µM (inactive)	30.5 µM (inactive)	83.9 µM (inactive)	1.1 µM (active)	73.6 µM (inactive)	14.6 µM (inactive)	19.5 µM (inactive)	> 100 µM (inactive)
Cc1ccc(Nc2cc(=O)[nH]c(=S)[nH]2)cc1	> 100 µM (inactive)	> 100 µM (inactive)	> 100 µM (inactive)	> 100 µM (inactive)	> 100 µM (inactive)	> 100 µM (inactive)	> 100 µM (inactive)	> 100 µM (inactive)	> 100 µM (inactive)	> 100 µM (inactive)	> 100 µM (inactive)	> 100 µM (inactive)	> 100 µM (inactive)	> 100 µM (inactive)	> 100 µM (inactive)	> 100 µM (inactive)	> 100 µM (inactive)	> 100 µM (inactive)	> 100 µM (inactive)	> 100 µM (inactive)
CC(=O)C1=C(C)N(c2ccccc2)C2(O)C=CC(O)=C3C(=O)c4ccccc4C(=O)C312 (stereo not given)	18.2 µM (inactive)	32.9 µM (inactive)	13.5 µM (inactive)	7.64 µM (inactive)	41.7 µM (inactive)	4.94 µM (inactive)	23 µM (inactive)	24.7 µM (inactive)	20.2 µM (inactive)	20 µM (inactive)	15.3 µM (inactive)	6.18 µM (inactive)	20.9 µM (inactive)	16.3 µM (inactive)	2.45 µM (inactive)	25.5 µM (inactive)	3.73 µM (inactive)	25.6 µM (inactive)	10.6 µM (inactive)	9.04 µM (inactive)
O=C(NCCCNC(=O)c1ccc2c(O)c(O)ccc2c1)c1ccc2c(O)c(O)ccc2c1	32.4 µM (inactive)	21.2 µM (inactive)	18.3 µM (inactive)	25.5 µM (inactive)	18.5 µM (inactive)	9.57 µM (inactive)	> 48.3 µM (inactive)	43.8 µM (inactive)	22.9 µM (inactive)	23.9 µM (inactive)	32.3 µM (inactive)	22.9 µM (inactive)	57.5 µM (inactive)	26.6 µM (inactive)	15.1 µM (inactive)	63 µM (inactive)	5.18 µM (inactive)	31 µM (inactive)	20.3 µM (inactive)	71.1 µM (inactive)
